# Experimental data published in article PMC10461100, “Transcuticular calcium imaging as a tool for the functional study of insect odorant receptors” (Frontiers in Molecular Neuroscience, 2023).
# Tests used:
# SlitOR29 = tested on: T1, SlitOR29; test: transcuticular calcium imaging (GCaMP6s), dose-response; set-up: species or system Spodoptera littoralis; details: volatile stimulus; dose loaded on filter paper (in mineral oil), not a concentration; in vivo fly antenna; 1 s puff
# T1 construct: full-length UAS transgene in Drosophila melanogaster ab3A basiconic neurons in place of DmelOR22a/b; endogenous Drosophila Orco; GCaMP6s reporter co-expressed; with Odorant receptor coreceptor (endogenous, Drosophila melanogaster)
# SlitOR6 = biological target: T2, SlitOR6 (Spodoptera littoralis, UniProt I6LJY9); test: transcuticular calcium imaging (GCaMP6m), dose-response; details: volatile stimulus; dose loaded on filter paper (in hexane), not a concentration; in vivo fly antenna; 1 s puff
# T2 construct: gene OR6; full-length UAS transgene in Drosophila melanogaster at1 trichoid neurons in place of DmelOR67d; endogenous Drosophila Orco; GCaMP6m reporter co-expressed; with Odorant receptor coreceptor (endogenous, Drosophila melanogaster)
# T2 sequence (I6LJY9 1-432): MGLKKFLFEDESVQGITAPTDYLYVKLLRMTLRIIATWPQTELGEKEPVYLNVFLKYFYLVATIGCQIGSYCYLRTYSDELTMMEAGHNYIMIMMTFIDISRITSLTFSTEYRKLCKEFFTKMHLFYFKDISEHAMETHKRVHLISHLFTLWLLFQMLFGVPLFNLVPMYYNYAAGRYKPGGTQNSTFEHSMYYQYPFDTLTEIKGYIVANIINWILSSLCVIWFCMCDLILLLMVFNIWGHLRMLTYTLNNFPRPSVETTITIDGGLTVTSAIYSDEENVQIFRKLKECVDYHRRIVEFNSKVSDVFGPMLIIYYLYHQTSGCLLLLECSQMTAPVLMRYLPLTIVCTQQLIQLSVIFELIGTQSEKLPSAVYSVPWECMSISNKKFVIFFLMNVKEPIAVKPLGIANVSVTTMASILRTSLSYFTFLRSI
# T2 sequence (Q9VNB5 1-486 partner): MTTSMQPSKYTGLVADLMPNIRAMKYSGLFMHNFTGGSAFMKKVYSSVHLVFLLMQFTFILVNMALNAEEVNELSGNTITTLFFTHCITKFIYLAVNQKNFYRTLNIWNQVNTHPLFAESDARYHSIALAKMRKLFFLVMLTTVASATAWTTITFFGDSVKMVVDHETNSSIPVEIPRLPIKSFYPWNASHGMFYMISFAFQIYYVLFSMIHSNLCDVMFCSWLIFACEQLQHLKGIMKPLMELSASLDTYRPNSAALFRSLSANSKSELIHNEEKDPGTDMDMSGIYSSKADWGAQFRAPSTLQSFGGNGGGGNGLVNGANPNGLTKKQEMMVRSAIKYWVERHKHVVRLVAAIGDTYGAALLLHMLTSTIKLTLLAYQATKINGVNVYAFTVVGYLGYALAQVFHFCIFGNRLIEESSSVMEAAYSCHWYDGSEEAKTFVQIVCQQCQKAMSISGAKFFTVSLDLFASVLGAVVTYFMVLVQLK
EC50 (SlitOR29) [µg],EC50 (SlitOR6) [µg],Structure (SMILES)
1.27 ± 0.37,,C=C/C(C)=C/CC=C(C)C [(E)-ocimene]
11.52 ± 0.70,,CC/C=C\CCOC(C)=O [(Z)-3-hexenyl acetate]
,0.96 ± 0.14,"C/C=C/C/C=C\CCCCCCCCOC(C)=O [(Z,E)-9,12-tetradecadienyl acetate]"
